This note sets out measurements from patent publication US8445501B2, “Substituted 7-carboxamido-pyrrolo[3,2-d]pyrimidines” (Takeda GmbH, priority 2008, dated 2013).

The target of this experiment is T1, human PDE5 (Homo sapiens, UniProt O76074).
T1 construct: from tissue; host or cells: platelets from fresh blood of human donors (lysate, 10,000 g supernatant)
The experiment can be described thus: Inhibition of the type 5 phosphodiesterase (PDE5) activity, modified SPA test with platelet lysate. It is filed as biochemical. Conditions: PDE5 from human platelet lysate, 0.5 μM cGMP. The method in brief: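 SPA-based cGMP hydrolysis, [3H]cGMP tracer in 0.5 μM cGMP, by sonicated human platelet lysate; motapizone (1 μM) and a PDE2 inhibitor (10 nM) block other PDEs. Reaction 15 min at 37 °C after 5 min preincubation, quenched with beads containing IBMX. IC50 from concentration-effect curves.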
In turn, `COCC(=O)N[C@H]1CC[C@@H](NC(=O)c2c[nH]c3c(-c4ccc(OC)cc4OCC4CC4)ncnc23)CC1` [Example 57, cis-4-(2-Cyclopropylmethoxy-4-methoxy-phenyl)-5H-pyrrolo[3,2-d]pyrimidine-7-carboxylic acid [4-(2-methoxy-acetylamino)-cyclohexyl]-amide] gave an IC50 of 0.468 nM.

With `COCC(=O)N[C@H]1CC[C@H](NC(=O)c2c[nH]c3c(-c4cc(OC)ccc4OCC4CC4)ncnc23)CC1` [Example 65, trans-4-(2-Cyclopropylmethoxy-5-methoxy-phenyl)-5H-pyrrolo[3,2-d]pyrimidine-7-carboxylic acid [4-(2-methoxy-acetylamino)-cyclohexyl]-amide], half-maximal inhibition (IC50) was put at 1.15 nM. Against the preceding molecule, the IC50 is about 2.5-fold higher.

The molecule `CCCOc1ccc2c(c1-c1ncnc3c(C(=O)NC4CCN(C(=O)OCC)CC4)c[nH]c13)OCO2` [Example 140, 4-{[4-(5-Propoxy-benzo[1,3]dioxol-4-yl)-5H-pyrrolo[3,2-d]pyrimidine-7-carbonyl]-amino}-piperidine-1-carboxylic acid ethyl ester] showed an IC50 of 0.148 nM.

Turning to `COCCOc1cc(OC)ccc1-c1ncnc2c(C(=O)N[C@H]3CC[C@H](NC(=O)CO)CC3)c[nH]c12` [Example 255, trans-4-[4-Methoxy-2-(2-methoxy-ethoxy)-phenyl]-5H-pyrrolo[3,2-d]pyrimidine-7-carboxylic acid [4-(2-hydroxy-acetylamino)-cyclohexyl]-amide], the IC50 was 13.5 nM. This IC50 lies about 91-fold higher than the previous one.

Consider `COCCOc1ccc2c(c1-c1ncnc3c(C(=O)NC4CCN(C(C)=O)CC4)c[nH]c13)OCO2` [Example 168, 4-[5-(2-Methoxy-ethoxy)-benzo[1,3]dioxol-4-yl]-5H-pyrrolo[3,2-d]pyrimidine-7-carboxylic acid (1-acetyl-piperidin-4-yl)-amide], for which the IC50 is 7.94 nM.

For the molecule `CCOC(=O)N[C@H]1CC[C@H](NC(=O)c2c[nH]c3c(-c4ccc(F)cc4OCC4CC4)ncnc23)CC1` [Example 80, trans-(4-{[4-(2-Cyclopropylmethoxy-4-fluoro-phenyl)-5H-pyrrolo[3,2-d]pyrimidine-7-carbonyl]-amino}-cyclohexyl)-carbamic acid ethyl ester], the IC50 was 1.41 nM.

Regarding `CCC(=O)N1CCC(NC(=O)c2c[nH]c3c(-c4ccc(F)cc4OCC4CC4)ncnc23)CC1` [Example 82, 4-(2-Cyclopropylmethoxy-4-fluoro-phenyl)-5H-pyrrolo[3,2-d]pyrimidine-7-carboxylic acid (1-propionyl-piperidin-4-yl)-amide], the 50% inhibitory concentration (IC50) is 1.1 nM.

Regarding `C[C@H](O)C(=O)N[C@H]1CC[C@@H](NC(=O)c2c[nH]c3c(-c4c(OCC5CC5)ccc5c4OCO5)ncnc23)CC1` [Example 175], half-maximal inhibition (IC50) required 0.245 nM. This IC50 lies about 4.5-fold lower than the previous one.

As for `C[C@H](O)C(=O)N1CC[C@H](NC(=O)c2c[nH]c3c(-c4c(OCC5CC5)ccc5c4OCO5)ncnc23)C1` [Example 184, 4-(5-Cyclopropylmethoxy-benzo[1,3]dioxol-4-yl)-5H-pyrrolo[3,2-d]pyrimidine-7-carboxylic acid [(S)-1-((S)-2-hydroxy-propanoyl)-pyrrolidin-3-yl]amide], the IC50 is 3.16 nM.

Molecule `CCCOc1ccc2c(c1-c1ncnc3c(C(=O)NC4CCN(C(=O)[C@H](C)O)CC4)c[nH]c13)OCO2` [Example 251, 4-(5-Propoxy-benzo[1,3]dioxol-4-yl)-5H-pyrrolo[3,2-d]pyrimidine-7-carboxylic acid [1-((S)-2-hydroxy-propionyl)piperidin-4-yl]-amide] had an IC50 of 0.363 nM.

In the case of `O=C(NCC1CCN(C(=O)CO)C1)c1c[nH]c2c(-c3c(OCC4CC4)ccc4c3OCO4)ncnc12` (stereo not drawn) [Example 191, 4-(5-Cyclopropylmethoxy-benzo[1,3]dioxol-4-yl)-5H-pyrrolo[3,2-d]pyrimidine-7-carboxylic acid [1-(2-hydroxy-acetyl)pyrrolidin-3-ylmethyl]-amide], the IC50 was 1.02 nM.

For `COc1cc(OCC2CC2)c(-c2ncnc3c(C(=O)NC4CCN(C(=O)[C@H](C)O)CC4)c[nH]c23)cc1F` [Example 237, 4-(2-Cyclopropylmethoxy-5-fluoro-4-methoxy-phenyl)-5H-pyrrolo[3,2-d]pyrimidine-7-carboxylic acid [1-((S)-2-hydroxy-propanoyl)piperidin-4-yl]-amide], the IC50 was 0.617 nM.

Regarding `CCOC(=O)N1CCC(CNC(=O)c2c[nH]c3c(-c4c(OCC5CC5)ccc5c4OCO5)ncnc23)C1` (stereo not drawn) [Example 34, 3-({[4-(5-Cyclopropylmethoxy-benzo[1,3]dioxol-4-yl)-5H-pyrrolo[3,2-d]pyrimidine-7-carbonyl]-amino}-methyl)-pyrrolidine-1-carboxylic acid ethyl ester], half-maximal inhibition (IC50) required 0.347 nM.

For `CCC(=O)N1CCOC(CNC(=O)c2c[nH]c3c(-c4c(OCC5CC5)ccc5c4OCO5)ncnc23)C1` (stereo not drawn) [Example 36, 4-(5-Cyclopropylmethoxy-benzo[1,3]dioxol-4-yl)-5H-pyrrolo[3,2-d]pyrimidine-7-carboxylic acid (4-propionyl-morpholin-2-ylmethyl)-amide], the midpoint of inhibition, the IC50, lay at 0.49 nM.

For `COc1ccc(OCC2CC2)c(-c2ncnc3c(C(=O)N[C@H]4CC[C@@H](NC(=O)CO)CC4)c[nH]c23)c1` [Example 208, cis-4-(2-Cyclopropylmethoxy-5-methoxy-phenyl)-5H-pyrrolo[3,2-d]pyrimidine-7-carboxylic acid [4-(2-hydroxy-acetylamino)-cyclohexyl]-amide], 1.86 nM corresponded to half-maximal inhibition (IC50).

`COc1cc(OCC2CC2)c(-c2ncnc3c(C(=O)N[C@H]4CC[C@H](NC(=O)[C@H](C)O)CC4)c[nH]c23)cc1F` [Example 234, trans-4-(2-Cyclopropylmethoxy-5-fluoro-4-methoxy-phenyl)-5H-pyrrolo[3,2-d]pyrimidine-7-carboxylic acid [4-((S)-2-hydroxy-propionylamino)-cyclohexyl]-amide] gave an IC50 of 0.977 nM.

Molecule `CC(=O)N1CCC(NC(=O)c2c[nH]c3c(-c4cc(F)ccc4OCC4CC4)ncnc23)CC1` [Example 84, 4-(2-Cyclopropylmethoxy-5-fluoro-phenyl)-5H-pyrrolo[3,2-d]pyrimidine-7-carboxylic acid (1-acetyl-piperidin-4-yl)-amide] showed an IC50 of 2.95 nM. Compared with the last molecule, the IC50 is about 3-fold higher.

For the molecule `COCCOc1ccc2c(c1-c1ncnc3c(C(=O)NC4CCN(C(=O)COC)CC4)c[nH]c13)OCO2` [Example 170, 4-[5-(2-Methoxy-ethoxy)-benzo[1,3]dioxol-4-yl]-5H-pyrrolo[3,2-d]pyrimidine-7-carboxylic acid [1-(2-methoxy-acetyl)piperidin-4-yl]-amide], half-maximal inhibition (IC50) required 13.8 nM. This IC50 is about 4.7-fold higher than that of the molecule before.

Regarding `COc1ccc(OCC2CC2)c(-c2ncnc3c(C(=O)NC4CCN(C(C)=O)CC4)c[nH]c23)c1` [Example 71, 4-(2-Cyclopropylmethoxy-5-methoxy-phenyl)-5H-pyrrolo[3,2-d]pyrimidine-7-carboxylic acid (1-acetyl-piperidin-4-yl)-amide], the IC50 was 1.35 nM. Against the preceding molecule, the IC50 is about 10-fold lower.

`CC(=O)N1CCC(NC(=O)c2c[nH]c3c(-c4c(OCC5CC5)ccc5c4OCO5)ncnc23)CC1` [Example 11, 4-(5-Cyclopropylmethoxy-benzo[1,3]dioxol-4-yl)-5H-pyrrolo[3,2-d]pyrimidine-7-carboxylic acid (1-acetyl-piperidin-4-yl)-amide] had an IC50 of 0.145 nM. Against the preceding molecule, the IC50 is about 9.3-fold lower.

In turn, `CC(=O)N[C@H]1CC[C@H](NC(=O)c2c[nH]c3c(-c4c(OCC5CCC5)ccc5c4OCO5)ncnc23)CC1` [Example 126, trans-4-(5-Cyclobutylmethoxy-benzo[1,3]dioxol-4-yl)-5H-pyrrolo[3,2-d]pyrimidine-7-carboxylic acid (4-acetylamino-cyclohexyl)-amide] gave an IC50 of 0.468 nM.

`O=C(N[C@@H]1CCN(C(=O)CO)C1)c1c[nH]c2c(-c3c(OCC4CC4)ccc4c3OCO4)ncnc12` [Example 180, 4-(5-Cyclopropylmethoxy-benzo[1,3]dioxol-4-yl)-5H-pyrrolo[3,2-d]pyrimidine-7-carboxylic acid [(R)-1-(2-hydroxy-ethanoyl)-pyrrolidin-3-yl]amide]: it took 1.2 nM to reach half-maximal inhibition (IC50). This IC50 lies about 2.6-fold higher than the previous one.

`O=CN1CCC(NC(=O)c2c[nH]c3c(-c4c(OCC5CC5)ccc5c4OCO5)ncnc23)CC1` [Example 43, 4-(5-Cyclopropylmethoxy-benzo[1,3]dioxol-4-yl)-5H-pyrrolo[3,2-d]pyrimidine-7-carboxylic acid (1-formyl-piperidin-4-yl)-amide]: the IC50 is 0.282 nM.

The molecule `O=C(N[C@H]1CC[C@H](NC(=O)C2CC2)CC1)c1c[nH]c2c(-c3ccccc3OCC3CC3)ncnc12` [Example 93, trans-4-(2-Cyclopropylmethoxy-phenyl)-5H-pyrrolo[3,2-d]pyrimidine-7-carboxylic acid [4-(cyclopropanecarbonyl-amino)cyclohexyl]-amide] gave an IC50 of 2.51 nM.

Take `O=C(N[C@H]1CC[C@@H](NC(=O)C2(O)CC2)CC1)c1c[nH]c2c(-c3c(OCC4CC4)ccc4c3OCO4)ncnc12` [Example 178, cis-4-(5-Cyclopropylmethoxy-benzo[1,3]dioxol-4-yl)-5H-pyrrolo[3,2-d]pyrimidine-7-carboxylic acid {4-[(1-hydroxy-cyclopropanecarbonyl)-amino]-cyclohexyl}-amide]: the IC50 is 0.229 nM. Compared with the last molecule, the IC50 is about 11-fold lower.

As for `COCCOc1ccc2c(c1-c1ncnc3c(C(=O)N[C@H]4CC[C@@H](NC(=O)COC)CC4)c[nH]c13)OCO2` [Example 166, cis-4-[5-(2-Methoxy-ethoxy)-benzo[1,3]dioxol-4-yl]-5H-pyrrolo[3,2-d]pyrimidine-7-carboxylic acid [4-(2-methoxy-acetylamino)-cyclohexyl]-amide], the IC50 is 10.2 nM.

`COCC(=O)N1CCC(NC(=O)c2c[nH]c3c(-c4cc(F)c(OC)cc4OCC4CC4)ncnc23)CC1` [Example 109, 4-(2-Cyclopropylmethoxy-5-fluoro-4-methoxy-phenyl)-5H-pyrrolo[3,2-d]pyrimidine-7-carboxylic acid [1-(2-methoxy-ethanoyl)-piperidin-4-yl]amide] had an IC50 of 0.692 nM.

Usually IC50 stands for the concentration that gives 50% inhibition.
